± gives the standard deviation of the averaged measurements.
Tests used:
Experiment in all cases: CTG-3D luminescence at 96 h relative to day-0 seeding control (ratio to day 0); higher = more growth / less cytotoxicity; PDxO 3D drug screen, 96 h, CTG-3D normalised to day-0 seeding control.
HCI-003.E2 = system: HCI-003.E2 (organoid from an ER-positive breast cancer xenograft)
HCI-005.E2 = system: HCI-005.E2 (organoid from a breast cancer xenograft with a HER2-positive history)
HCI-015 = system: HCI-015 (organoid from a triple-negative breast cancer xenograft)
HCI-016 = system: HCI-016 (organoid from a triple-negative breast cancer xenograft)
HCI-019 = system: HCI-019 (organoid from a triple-negative breast cancer xenograft)
HCI-025 = system: HCI-025 (organoid from a breast cancer xenograft)

CC1(C)CCC(c2ccc(Cl)cc2)=C(CN2CCN(c3ccc(C(=O)NS(=O)(=O)c4ccc(N[C@H](CCN5CCOCC5)CSc5ccccc5)c(S(=O)(=O)C(F)(F)F)c4)cc3)CC2)C1 [navitoclax]
CTG-3D luminescence at 96 h
Conditions | 12.5 pM | 0.00025 µM | 0.005 µM | 0.1 µM | 1 µM | 10 µM | 100 µM | 625 fM
HCI-003.E2 | 1.98 ± 0.72 | 2.09 ± 0.83 | 1.64 ± 0.31 | 2.22 ± 0.47 | 1.78 ± 0.67 | 1.12 ± 0.62 | 0.0236 ± 0.0095 | 1.76 ± 0.35
HCI-005.E2 | 1.5 ± 0.29 | 1.46 ± 0.075 | 1.66 ± 0.36 | 1.7 ± 0.3 | 1.24 ± 0.27 | 1.21 ± 0.26 | 0.0085 ± 0.0066 | 1.6 ± 0.35

CTG-3D luminescence at 96 h
Conditions | 12.5 pM | 0.00025 µM | 0.005 µM | 0.1 µM | 1 µM | 10 µM | 100 µM | 625 fM
HCI-015, days in culture: 172 | 2.17 | 2.01 | 2.2 | 1.82 | 1.99 | 1.61 | 0.429 | 2.6
HCI-015, days in culture: 191 | 2.56 | 1.7 | 2 | 1.59 | 1.87 | 1.01 | 0.399 | 1.61
HCI-015, days in culture: 218 | 1.72 | 1.53 | 1.74 | 1.59 | 1.64 | 1.63 | -0.117 | 1.97
HCI-016, days in culture: 153 | 3.08 | 1.54 | 2.11 | 1.77 | 1.76 | 0.105 | 0.000169 | 3.01
HCI-016, days in culture: 172 | 2.29 | 2.07 | 1.85 | 1.43 | 1.55 | 0.931 | 0.00877 | 1.68
HCI-016, days in culture: 190 | 2.07 | 1.62 | 1.9 | 1.65 | 1.46 | 1.1 | 0.0887 | 1.24
HCI-016, days in culture: 199 | 2.03 | 2.16 | 2.22 | 1.82 | 2.1 | 0.827 | 0.0061 | 1.99
HCI-019, days in culture: 110 | 1.8 | 1.8 | 1.56 | 1.84 | 0.469 | 0.538 | 0.0111 | 2.31
HCI-019, days in culture: 131 | 2.39 | 3.6 | 3.23 | 2.91 | 1.25 | 0.358 | 0.0147 | 3.96
HCI-019, days in culture: 152 | 2.86 | 2.49 | 3.21 | 1.89 | 0.769 | 0.582 | 0.00119 | 2.39
HCI-025, days in culture: 172 | 3.28 | 1.84 | 2.93 | 0.781 | 0.555 | -0.249 | -0.109 | 2.63
HCI-025, days in culture: 209 | 1.95 | 2.53 | 2.24 | 1.27 | 1.81 | 0.666 | 0.00258 | 2.29
HCI-025, days in culture: 218 | 1.36 | 1.87 | 1.59 | 1.15 | 0.81 | 0.293 | 0.0152 | 1.91

NC(=O)c1cccc2cn(-c3ccc([C@@H]4CCCNC4)cc3)nc12 [niraparib]
CTG-3D luminescence at 96 h
Conditions | 12.5 pM | 0.00025 µM | 0.005 µM | 0.1 µM | 1 µM | 10 µM | 100 µM | 625 fM
HCI-003.E2 | 2.06 ± 0.91 | 2.18 ± 0.87 | 1.93 ± 0.43 | 2.06 ± 0.65 | 1.81 ± 0.66 | 1.28 ± 0.43 | -0.000881 ± 0.0012 | 1.94 ± 0.36
HCI-005.E2 | 1.22 ± 0.35 | 1.61 ± 0.12 | 1.3 ± 0.14 | 1.62 ± 0.44 | 1.51 ± 0.31 | 1.05 ± 0.24 | -0.00126 ± 0.00038 | 1.35 ± 0.13

CTG-3D luminescence at 96 h
Conditions | 12.5 pM | 0.00025 µM | 0.005 µM | 0.1 µM | 1 µM | 10 µM | 100 µM | 625 fM
HCI-015, days in culture: 172 | 2.77 | 1.86 | 2.64 | 1.3 | 0.847 | 0.199 | -0.107 | 2.29
HCI-015, days in culture: 191 | 2.28 | 1.35 | 1.72 | 1.06 | 1.12 | 0.29 | -0.000426 | 1.59
HCI-015, days in culture: 218 | 2.06 | 1.35 | 1.71 | 1.25 | 0.615 | -0.0786 | -0.35 | 1.94
HCI-016, days in culture: 153 | 2.7 | 1.98 | 2.84 | 1.82 | 0.989 | 0.444 | -0.00489 | 2.67
HCI-016, days in culture: 172 | 2.42 | 2.33 | 2.02 | 1.56 | 1.36 | 0.272 | -0.00828 | 1.66
HCI-016, days in culture: 190 | 1.64 | 1.64 | 2.08 | 1.58 | 0.974 | 0.189 | -0.105 | 1.59
HCI-016, days in culture: 199 | 2.02 | 2.05 | 1.96 | 1.54 | 0.655 | 0.118 | -0.0141 | 2.02
HCI-019, days in culture: 110 | 1.64 | 1.35 | 1.18 | 1.2 | 0.642 | 1.1 | 0.00205 | 2.72
HCI-019, days in culture: 131 | 2.29 | 3.06 | 2.98 | 2.4 | 0.89 | 1.3 | 0.00628 | 3.35
HCI-019, days in culture: 152 | 2.88 | 2.16 | 1.69 | 1.52 | 0.878 | 1.16 | 0.00267 | 2.35
HCI-025, days in culture: 172 | 2.92 | 1.82 | 3.92 | 2.04 | 2.08 | 0.426 | -0.311 | 2.26
HCI-025, days in culture: 209 | 1.9 | 2.67 | 2.31 | 1.69 | 1.9 | 0.545 | -0.0263 | 1.59
HCI-025, days in culture: 218 | 1.38 | 1.94 | 1.97 | 1.83 | 1.03 | 0.271 | -0.304 | 1.62

CC(=O)O[C@H]1C(=O)[C@@]2(C)[C@H]([C@H](OC(=O)c3ccccc3)[C@]3(O)C[C@H](OC(=O)[C@H](O)[C@@H](NC(=O)c4ccccc4)c4ccccc4)C(C)=C1C3(C)C)[C@]1(OC(C)=O)CO[C@@H]1C[C@@H]2O [paclitaxel]
CTG-3D luminescence at 96 h
Conditions | 12.5 pM | 0.00025 µM | 0.005 µM | 0.1 µM | 1 µM | 10 µM | 100 µM | 625 fM
HCI-003.E2 | 0.723 ± 0.26 | 0.764 ± 0.34 | 0.601 ± 0.18 | 0.625 ± 0.068 | 0.634 ± 0.16 | 0.787 ± 0.4 | 0.992 ± 0.28 | 0.813 ± 0.22
HCI-005.E2 | 1.56 ± 0.41 | 1.54 ± 0.19 | 1.53 ± 0.45 | 1.34 ± 0.34 | 1.49 ± 0.35 | 1.85 ± 0.66 | 1.39 ± 0.33 | 1.97 ± 0.47

CTG-3D luminescence at 96 h
Conditions | 12.5 pM | 0.00025 µM | 0.005 µM | 0.1 µM | 1 µM | 10 µM | 100 µM | 625 fM
HCI-015, days in culture: 172 | 1.71 | 0.614 | 1.22 | 0.629 | 0.689 | 0.702 | 0.612 | 1.2
HCI-015, days in culture: 191 | 1.87 | 1.47 | 1.01 | 0.626 | 0.566 | 0.463 | 0.334 | 1.82
HCI-015, days in culture: 218 | 1.85 | 1.53 | 0.801 | 0.428 | 0.505 | 0.46 | 0.39 | 1.86
HCI-016, days in culture: 153 | 1.14 | 0.515 | 0.631 | 0.561 | 0.976 | 1.08 | 0.796 | 0.781
HCI-016, days in culture: 172 | 2.25 | 1.87 | 1.29 | 0.627 | 0.505 | 0.659 | 0.505 | 1.5
HCI-016, days in culture: 190 | 1.89 | 1.42 | 0.919 | 0.359 | 0.861 | 0.704 | 0.661 | 1.05
HCI-016, days in culture: 199 | 1.64 | 1.67 | 0.633 | 0.431 | 0.495 | 0.834 | 0.484 | 1.66
HCI-019, days in culture: 110 | 1.88 | 1.91 | 0.816 | 0.627 | 0.47 | 0.827 | 0.987 | 2.39
HCI-019, days in culture: 131 | 2.01 | 2.78 | 0.75 | 0.609 | 0.644 | 1.48 | 1.29 | 3.26
HCI-019, days in culture: 152 | 1.25 | 1.28 | 0.778 | 0.964 | 0.598 | 1.01 | 1.18 | 1.52
HCI-025, days in culture: 172 | 1.17 | 0.343 | 0.553 | 0.314 | 0.362 | 0.295 | 0.584 | 0.698
HCI-025, days in culture: 209 | 2.09 | 2.2 | 1.75 | 0.281 | 0.353 | 0.301 | 0.767 | 2
HCI-025, days in culture: 218 | 1.85 | 2.18 | 1.43 | 0.199 | 0.168 | 0.213 | 0.507 | 1.92

Reference: the supplement of paper PMC8882468
